Test results taken from US5112811A, “SDK peptides and therapeutic compositions containing them” (Societe de Conseils de Recherches et d'Applications …, priority 1989, dated 1992).
Residues, ends and D or L forms follow the SMILES beside them.

Tests used:
Jurkat T cells = test: Rosettes protocol: rosette formation between Jurkat T cells and sheep red blood cells; assay type: cell-based
Protocol: Wash three times the red blood cells (RBC) in RPMI 1640 or RBS or Hanks +antibiotic drugs. Centrifuge for 7 minutes at 3000 rpm.
Put the cells sap in suspension. Count. Bring to 2.10^8 RBC/ml in a solution of RPMI at 20 % of Foetal Calf Serum (FCS) (4 ml formerly adsorbed on 1 ml of RBC sap, 30 minutes on an ice-bath, then centrifuge for 7 minutes at 3000 rpm and recover in sterile conditions).
Take an aliquot of Jurkat T cells in culture. Make a viability with Trypan blue.
Then take the volume of cells required for practical work. Wash the cells three times in RPMI 1640 or PBS or Hanks +antibiotic drugs. Centrifuge for 7 minutes at 900 rpm.
Put the cells sap in suspension. Count. Bring to 2.10^6 Jurkat T cells/ml of solution of RPMI at 20 % of adsorbed FCS.
Inhibiting solution =SDK (2.10^-7 mole).
Peptides to be evaluated are dissolved in RPMI 1640 at the appropriate concentration.
Place, in the tube, 200 μl of the inhibiting solution +100 μl of Jurkat T cells […] in RMPI +FCS 20 %; leave 10 minutes on an ice-bath. Add […] in RPMI +FCS 20 %.
Centrifuge for 5 minutes at 500 rpm. Leave overnight at 4° C.
Set the microscope : ocular :×6 objective :×7
Put carefully back in suspension the cells by tapping. Let it rest for a while.
Add, in the tube, 30 μl of Toluidine blue 1 % (to dye the lymphocytes). Tap gently.
Read 3 Malassex hemocytometer per experimental point.

[1] = system: Human peripheral mononuclear cells (MNC) stimulated by 0.1% PHA; test: Stimulation of T lymphocytes proliferation ([3H]thymidine DNA synthesis in PHA-stimulated MNC); assay type: cell-based; settings: for DNA synthesis induced in MNC stimulated by 0.1% PHA: PBL with 0.1% PHA, 3 days; for % stimulation of DNA synthesis in MNC stimulated by 0.1% PHA: versus control (RPMI 1640)
Protocol: Dilute blood at 1/2 in PBS.
On 15 ml of Ficoll-Hypaque, put 35 ml of dilute blood.
Centrifuge 30 minutes at 1800 rpm, at room temperature.
Take the ring corresponding to mononuclear cells (MNC) back with Pasteur pipette.
Wash twice in PBS (centrifuge for 10 minutes at 1800 rpm).
Bring to 2.10^6 cells/ml with RPMI 1640 "complete" medium +10 % SVF.
PHA-M : Reconstitute a 5 ml bottle lyophylized with 5 ml of "complete" medium. Solution of 100 %. Dilute to obtain a 0.4 % solution.
SDK : Tube […] +4.35 ml "complete" medium. Solution 2.3 10^-4 M.
Then dilute successively 450 μl "medium" +50 μl of dilution.
In 96-well sterilized boxes NUNC :
50 μl of PHA 0.4 % (0.1 % final)
Incubate for 3 days at 37° C. in air/CO* atmosphere 95/5. During the last 24 hours, make a puls of [^3 H] Thymidine : 1 μci/well. Pick up the wells on filters and count with a counter.

[2] = system: B lymphocytes which secrete IgM immunoglobulines; test: Humoral response in mice to sheep red blood cells (hemolysis plaque technique, Jerne method); assay type: in vivo, mice of B6D2F1 strain; settings: 3 μg/kg IP; for Number of P.F.C./10^6 cells: read on day +4; for % stimulation of humoral response: versus saline
Protocol: 6-to-8 week old mice of B6D2F1 strain are sensitized, on day 0, with 0.2 ml of a sheep red blood cells suspension [10^8 cells ] in a saline solution of Hanks.
The Ser-Asp-Lys and the Pro-Ser-Asp-Lys-Pro peptides (3 μg/kg) were injected in solution physiological serum, by IP route, in 0.2 ml, at the appointed time.
On day +4, animals are killed and the number of B lymphocytes which secrete IgM immunoglobulines are counted by the hemolysis plaque technique (Jerne method).
8 mice / batch. 4 determinations / animal made test : 2 experiments / point.

SMILES: NCCCC[C@H](NC(=O)[C@H](CC(=O)O)NC(=O)[C@H](CO)NC(=O)[C@@H]1CCCN1)C(=O)N1CCC[C@H]1C(=O)O [PSDKP, Pro-Ser-Asp-Lys-Pro] (H-PSDKP-OH)
- % INHIBITION of rosettes (Jurkat T cells; peptide 10^-4 M): -37%
- % ROSETTES (Jurkat T cells; peptide 10^-4 M): 37 ± 7%
- % INHIBITION of rosettes (Jurkat T cells; peptide 10^-5 M): -44%
- % ROSETTES (Jurkat T cells; peptide 10^-5 M): 33 ± 3%
- % INHIBITION of rosettes (Jurkat T cells; peptide 10^-6 M): -54%
- % ROSETTES (Jurkat T cells; peptide 10^-6 M): 27 ± 5%
- % INHIBITION of rosettes (Jurkat T cells; peptide 10^-7 M): -24%
- % ROSETTES (Jurkat T cells; peptide 10^-7 M): 45 ± 6%
- % INHIBITION of rosettes (Jurkat T cells; peptide 10^-8 M): -19%
- % ROSETTES (Jurkat T cells; peptide 10^-8 M): 48 ± 2%
- % INHIBITION of rosettes (Jurkat T cells; peptide 10^-9 M): -19%
- % ROSETTES (Jurkat T cells; peptide 10^-9 M): 48 ± 4%
- % ROSETTES (Jurkat T cells; peptide 10^-10 M): 52 ± 5%
- DNA synthesis induced in MNC stimulated by 0.1% PHA ([1]; peptide 3.10^-5 M): 54 ± 4 cpm × 10^3 /2.10^5 cells
- % stimulation of DNA synthesis in MNC stimulated by 0.1% PHA ([1]; peptide 3.10^-5 M): +42%
- Number of P.F.C./10^6 cells ([2]; injection at 0 h): 915 ± 140 P.F.C./10^6 cells
- % stimulation of humoral response ([2]; injection at 0 h): +99%
- Number of P.F.C./10^6 cells ([2]; injection at +24 h): 475 ± 82 P.F.C./10^6 cells
- Number of P.F.C./10^6 cells ([2]; injection at +48 h): 589 ± 101 P.F.C./10^6 cells
- % stimulation of humoral response ([2]; injection at +48 h): +45%
- Number of P.F.C./10^6 cells ([2]; injection at +72 h): 543 ± 112 P.F.C./10^6 cells
- Number of P.F.C./10^6 cells ([2]; injection at -24 h): 630 ± 142 P.F.C./10^6 cells
- % stimulation of humoral response ([2]; injection at -24 h): +42%

SMILES: NCCCC[C@H](NC(=O)[C@H](CC(=O)O)NC(=O)[C@@H](N)CO)C(=O)O [SDK, Ser-Asp-Lys] (H-Ser-Asp-Lys-OH)
- % INHIBITION of rosettes (Jurkat T cells; peptide 10^-4 M): -40%
- % ROSETTES (Jurkat T cells; peptide 10^-4 M): 38 ± 3%
- % INHIBITION of rosettes (Jurkat T cells; peptide 10^-5 M): -28%
- % ROSETTES (Jurkat T cells; peptide 10^-5 M): 45 ± 4%
- % INHIBITION of rosettes (Jurkat T cells; peptide 10^-6 M): -22%
- % ROSETTES (Jurkat T cells; peptide 10^-6 M): 50 ± 2%
- % INHIBITION of rosettes (Jurkat T cells; peptide 10^-7 M): -22%
- % ROSETTES (Jurkat T cells; peptide 10^-7 M): 49 ± 2%
- % INHIBITION of rosettes (Jurkat T cells; peptide 10^-8 M): -36%
- % ROSETTES (Jurkat T cells; peptide 10^-8 M): 40 ± 2%
- % INHIBITION of rosettes (Jurkat T cells; peptide 10^-9 M): -32%
- % ROSETTES (Jurkat T cells; peptide 10^-9 M): 43 ± 1%
- % INHIBITION of rosettes (Jurkat T cells; peptide 10^-10 M): -32%
- % ROSETTES (Jurkat T cells; peptide 10^-10 M): 43 ± 3%
- % INHIBITION of rosettes (Jurkat T cells; peptide 10^-11 M): -36%
- % ROSETTES (Jurkat T cells; peptide 10^-11 M): 40 ± 1%
- % INHIBITION of rosettes (Jurkat T cells; peptide 10^-12 M): -30%
- % ROSETTES (Jurkat T cells; peptide 10^-12 M): 44 ± 3%
- % INHIBITION of rosettes (Jurkat T cells; peptide 10^-13 M): -19%
- % ROSETTES (Jurkat T cells; peptide 10^-13 M): 51 ± 7%
- % INHIBITION of rosettes (Jurkat T cells; peptide 10^-14 M): -14%
- % ROSETTES (Jurkat T cells; peptide 10^-14 M): 55 ± 2%
- % ROSETTES (Jurkat T cells; peptide 10^-15 M): 63 ± 4%
- DNA synthesis induced in MNC stimulated by 0.1% PHA ([1]; peptide 3.10^-5 M): 56 ± 5 cpm × 10^3 /2.10^5 cells
- % stimulation of DNA synthesis in MNC stimulated by 0.1% PHA ([1]; peptide 3.10^-5 M): +60%
- DNA synthesis induced in MNC stimulated by 0.1% PHA ([1]; peptide 3.10^-10 M): 52 ± 5 cpm × 10^3 /2.10^5 cells
- % stimulation of DNA synthesis in MNC stimulated by 0.1% PHA ([1]; peptide 3.10^-10 M): +30%
- Number of P.F.C./10^6 cells ([2]; injection at 0 h): 903 ± 133 P.F.C./10^6 cells
- % stimulation of humoral response ([2]; injection at 0 h): +97%
- Number of P.F.C./10^6 cells ([2]; injection at +24 h): 459 ± 103 P.F.C./10^6 cells
- Number of P.F.C./10^6 cells ([2]; injection at +48 h): 673 ± 110 P.F.C./10^6 cells
- % stimulation of humoral response ([2]; injection at +48 h): +65%
- Number of P.F.C./10^6 cells ([2]; injection at +72 h): 1073 ± 348 P.F.C./10^6 cells
- % stimulation of humoral response ([2]; injection at +72 h): +134%
- Number of P.F.C./10^6 cells ([2]; injection at -24 h): 644 ± 170 P.F.C./10^6 cells
- % stimulation of humoral response ([2]; injection at -24 h): +45%
